{"source": "the NIST ThermoML archive (doi:10.1016/j.fluid.2014.05.043)", "test": "mn = molality of the nth substance listed, in mol/kg", "conditions": "101 kPa, Liquid; for molar conductivity: 293 K, Direct current cell with electrodes; for mass density: Vibrating tube method", "note": "± gives the expanded uncertainty stated by the source.", "data": [{"smiles": "CCCCCCCCCCCCCCCCCC(=O)O.NCCO", "note": "[2-hydroxyethylammonium stearate] + O", "values": [{"measurement": "molar conductivity", "setting": "m1 = 2.77e-05", "result": "0.0501 ± 0.0038", "unit": "S·m2/mol"}, {"measurement": "molar conductivity", "setting": "m1 = 2.83e-05", "result": "0.0488 ± 0.0038", "unit": "S·m2/mol"}, {"measurement": "molar conductivity", "setting": "m1 = 2.89e-05", "result": "0.0477 ± 0.0036", "unit": "S·m2/mol"}, {"measurement": "molar conductivity", "setting": "m1 = 2.96e-05", "result": "0.0464 ± 0.0035", "unit": "S·m2/mol"}, {"measurement": "molar conductivity", "setting": "m1 = 3.03e-05", "result": "0.0452 ± 0.0035", "unit": "S·m2/mol"}, {"measurement": "molar conductivity", "setting": "m1 = 3.1e-05", "result": "0.044 ± 0.0033", "unit": "S·m2/mol"}, {"measurement": "molar conductivity", "setting": "m1 = 3.18e-05", "result": "0.0428 ± 0.0033", "unit": "S·m2/mol"}, {"measurement": "molar conductivity", "setting": "m1 = 3.26e-05", "result": "0.0415 ± 0.0033", "unit": "S·m2/mol"}, {"measurement": "molar conductivity", "setting": "m1 = 3.34e-05", "result": "0.0403 ± 0.003", "unit": "S·m2/mol"}, {"measurement": "molar conductivity", "setting": "m1 = 3.43e-05", "result": "0.0392 ± 0.0027", "unit": "S·m2/mol"}, {"measurement": "molar conductivity", "setting": "m1 = 3.52e-05", "result": "0.0383 ± 0.0028", "unit": "S·m2/mol"}, {"measurement": "molar conductivity", "setting": "m1 = 3.61e-05", "result": "0.0371 ± 0.0027", "unit": "S·m2/mol"}, {"measurement": "molar conductivity", "setting": "m1 = 3.71e-05", "result": "0.0362 ± 0.0028", "unit": "S·m2/mol"}, {"measurement": "molar conductivity", "setting": "m1 = 3.82e-05", "result": "0.0347 ± 0.0028", "unit": "S·m2/mol"}, {"measurement": "molar conductivity", "setting": "m1 = 3.93e-05", "result": "0.0336 ± 0.0027", "unit": "S·m2/mol"}, {"measurement": "molar conductivity", "setting": "m1 = 4.05e-05", "result": "0.0323 ± 0.0027", "unit": "S·m2/mol"}, {"measurement": "molar conductivity", "setting": "m1 = 4.17e-05", "result": "0.0311 ± 0.0026", "unit": "S·m2/mol"}, {"measurement": "molar conductivity", "setting": "m1 = 4.31e-05", "result": "0.0297 ± 0.0026", "unit": "S·m2/mol"}, {"measurement": "molar conductivity", "setting": "m1 = 4.45e-05", "result": "0.0283 ± 0.0025", "unit": "S·m2/mol"}, {"measurement": "molar conductivity", "setting": "m1 = 4.6e-05", "result": "0.0271 ± 0.0024", "unit": "S·m2/mol"}, {"measurement": "molar conductivity", "setting": "m1 = 4.76e-05", "result": "0.0256 ± 0.0024", "unit": "S·m2/mol"}, {"measurement": "molar conductivity", "setting": "m1 = 4.94e-05", "result": "0.0241 ± 0.0023", "unit": "S·m2/mol"}, {"measurement": "molar conductivity", "setting": "m1 = 5.13e-05", "result": "0.0227 ± 0.0021", "unit": "S·m2/mol"}, {"measurement": "molar conductivity", "setting": "m1 = 5.33e-05", "result": "0.0214 ± 0.0018", "unit": "S·m2/mol"}, {"measurement": "molar conductivity", "setting": "m1 = 5.56e-05", "result": "0.0204 ± 0.0016", "unit": "S·m2/mol"}, {"measurement": "molar conductivity", "setting": "m1 = 5.81e-05", "result": "0.0194 ± 0.0015", "unit": "S·m2/mol"}, {"measurement": "molar conductivity", "setting": "m1 = 6.09e-05", "result": "0.0183 ± 0.0015", "unit": "S·m2/mol"}, {"measurement": "molar conductivity", "setting": "m1 = 6.38e-05", "result": "0.0172 ± 0.0013", "unit": "S·m2/mol"}, {"measurement": "molar conductivity", "setting": "m1 = 6.7e-05", "result": "0.0163 ± 0.0013", "unit": "S·m2/mol"}, {"measurement": "molar conductivity", "setting": "m1 = 7.07e-05", "result": "0.0153 ± 0.0012", "unit": "S·m2/mol"}, {"measurement": "molar conductivity", "setting": "m1 = 7.45e-05", "result": "0.0143 ± 0.0012", "unit": "S·m2/mol"}, {"measurement": "mass density", "setting": "298.15 K, m1 = 5.8e-06", "result": "996 ± 0.83", "unit": "kg/m3"}, {"measurement": "mass density", "setting": "298.15 K, m1 = 1.15e-05", "result": "994.86 ± 0.83", "unit": "kg/m3"}, {"measurement": "mass density", "setting": "298.15 K, m1 = 1.73e-05", "result": "997.03 ± 0.85", "unit": "kg/m3"}, {"measurement": "mass density", "setting": "298.15 K, m1 = 2.31e-05", "result": "996.95 ± 0.83", "unit": "kg/m3"}, {"measurement": "mass density", "setting": "298.15 K, m1 = 2.89e-05", "result": "997.02 ± 0.83", "unit": "kg/m3"}, {"measurement": "mass density", "setting": "303.15 K, m1 = 5.8e-06", "result": "994.49 ± 0.83", "unit": "kg/m3"}, {"measurement": "mass density", "setting": "303.15 K, m1 = 1.15e-05", "result": "995.63 ± 0.83", "unit": "kg/m3"}, {"measurement": "mass density", "setting": "303.15 K, m1 = 1.73e-05", "result": "995.65 ± 0.83", "unit": "kg/m3"}, {"measurement": "mass density", "setting": "303.15 K, m1 = 2.31e-05", "result": "995.35 ± 0.83", "unit": "kg/m3"}, {"measurement": "mass density", "setting": "303.15 K, m1 = 2.89e-05", "result": "995.6 ± 0.83", "unit": "kg/m3"}, {"measurement": "mass density", "setting": "308.15 K, m1 = 5.8e-06", "result": "990.78 ± 0.83", "unit": "kg/m3"}, {"measurement": "mass density", "setting": "308.15 K, m1 = 1.15e-05", "result": "994.03 ± 0.85", "unit": "kg/m3"}, {"measurement": "mass density", "setting": "308.15 K, m1 = 1.73e-05", "result": "993.99 ± 0.83", "unit": "kg/m3"}, {"measurement": "mass density", "setting": "308.15 K, m1 = 2.31e-05", "result": "993.62 ± 0.83", "unit": "kg/m3"}, {"measurement": "mass density", "setting": "308.15 K, m1 = 2.89e-05", "result": "993.99 ± 0.84", "unit": "kg/m3"}]}, {"smiles": "O", "note": "[water] + CCCCCCCCCCCCCCCCCC(=O)O.NCCO", "values": [{"measurement": "mass density", "setting": "298.15 K, m2 = 0", "result": "996.06 ± 10", "unit": "kg/m3"}, {"measurement": "mass density", "setting": "303.15 K, m2 = 0", "result": "994.67 ± 16", "unit": "kg/m3"}, {"measurement": "mass density", "setting": "308.15 K, m2 = 0", "result": "993.01 ± 380", "unit": "kg/m3"}]}]}
